Reference: article PMC7413254 (Nature Communications, 2020)
Numbering of substitutions follows the chain as printed. “And” between values parts separate entries of the source, which are not always exact repeats. Equal entries are not always repeated. Where two headings read alike, the source gives them in different places.

Tests used:
[1] = molecular target: T1, PfCRT^3D7 in C2^GC03 parasites (Plasmodium falciparum, UniProt Q8IBZ9); experiment: P. falciparum H+-efflux assay (rate of DV alkalinisation after concanamycin A); type: cell-based; conditions: C2GC03; test solute 10 μM
T1 construct: PfCRT also functions as a peptide transporter within its native environment of the DV membrane; expressed in transfected cells; host or cells: P. falciparum pfcrt transfectant line C2^GC03 (saponin-isolated trophozoites)
T1 sequence (Q8IBZ9 1-424): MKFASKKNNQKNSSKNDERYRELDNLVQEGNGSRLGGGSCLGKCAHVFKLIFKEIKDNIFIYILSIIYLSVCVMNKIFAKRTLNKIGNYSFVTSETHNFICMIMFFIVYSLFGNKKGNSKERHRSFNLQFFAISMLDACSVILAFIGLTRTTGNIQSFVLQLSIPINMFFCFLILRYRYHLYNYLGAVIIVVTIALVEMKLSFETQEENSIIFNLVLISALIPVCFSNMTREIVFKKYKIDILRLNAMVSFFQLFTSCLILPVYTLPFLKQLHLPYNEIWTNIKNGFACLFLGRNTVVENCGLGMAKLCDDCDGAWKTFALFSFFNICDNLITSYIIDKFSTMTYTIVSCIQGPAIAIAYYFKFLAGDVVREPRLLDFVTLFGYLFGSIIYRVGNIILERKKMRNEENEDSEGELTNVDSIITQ

[2] = molecular target: T2, PfCRT^7G8 in C6^7G8 parasites (Plasmodium falciparum, UniProt Q8IBZ9, A220S/C72S/I351M/I356L/K76T/N326D); experiment: as above; type: cell-based; conditions: C67G8; test solute 10 μM
T2 construct: PfCRT also functions as a peptide transporter within its native environment of the DV membrane; expressed in transfected cells; host or cells: P. falciparum pfcrt transfectant line C6^7G8 (saponin-isolated trophozoites)
T2 sequence (Q8IBZ9 1-424 C72S/K76T/A220S/N326D/I351M/I356L): T1 sequence (Q8IBZ9 1-424) with C72S, K76T, A220S, N326D, I351M, I356L

[3] = molecular target: T3, PfCRT^Dd2 in C4^Dd2 parasites (Plasmodium falciparum, UniProt Q8IBZ9, A220S/I356T/K76T/M74I/N326S/N75E/Q271E/R371I); experiment: as above; type: cell-based; conditions: C4Dd2; test solute 10 μM
T3 construct: PfCRT also functions as a peptide transporter within its native environment of the DV membrane; expressed in transfected cells; host or cells: P. falciparum pfcrt transfectant line C4^Dd2 (saponin-isolated trophozoites)
T3 sequence (Q8IBZ9 1-424 M74I/N75E/K76T/A220S/Q271E/N326S/I356T/R371I): T1 sequence (Q8IBZ9 1-424) with M74I, N75E, K76T, A220S, Q271E, N326S, I356T, R371I

[4] = test system: non-expressing oocytes; type: cell-based, Xenopus laevis
Procedure: (§1) Measurements of the cis-inhibition of [^3H]CQ transport via PfCRT^Dd2 or PfCRT^Ecu1110 by a test solute (data presented in Fig. 1 and Supplementary Data 1,2) were performed on oocytes three days post-cRNA-injection[15],[21]. Ten oocytes were washed twice with the relevant ND96 buffer. The assay commenced with the addition of ND96 buffer supplemented with 0.25 μM [^3H]CQ, 15 μM unlabelled CQ, and the unlabelled solute under study (at a concentration specified in the figure legends and Supplementary Data 1, 2). The assay was terminated by removing the reaction buffer and washing the oocytes with ice-cold ND96 buffer. The oocytes were lysed in 10% (w/v) sodium dodecyl sulfate (SDS) and the radioactivity accumulated within each oocyte was measured with a MicroBeta^2 microplate liquid scintillation analyser (PerkinElmer).
(§2) Measurements of the uptake or efflux of a number of other radiolabelled compounds (Fig. 3k; Supplementary Fig. 3) were performed using the methods described above for [^3H]CQ and [^3H]VF-6, respectively.

[5] = molecular target: T4, PfNT1 (Plasmodium falciparum, UniProt Q8IDM6); type: cell-based
T4 construct: expressed in transfected cells; host or cells: Xenopus laevis oocytes (stage V-VI), cRNA-injected
Procedure: as §1, §2

[6] = test system: C2^GC03 parasites; experiment: P. falciparum proliferation assay; type: cell-based; conditions: Plasmodium falciparum
Procedure: (§3) Parasite proliferation was measured in 96-well plates using a fluorescent DNA-intercalating dye[68],[69]. Synchronous ring-stage parasite cultures (~1% haematocrit and 1% parasitaemia) were incubated with different concentrations of the test compound for 72 h at 37 °C and under reduced O2 conditions. The assay was terminated by freezing and thawing the samples, after which 100 μL of SYBR Safe DNA Gel Stain (Molecular Probes; 0.2 μL/mL) in a lysis buffer (20 mM Tris-HCl, 5 mM EDTA, 0.008% (w/v) saponin and 0.08% (v/v) Triton X-100; pH 7.5) was added to each well. The fluorescence from each well was measured using a Tecan Infinite M1000 PRO microplate reader (excitation wavelength 490 nm; emission wavelength 520 nm). The fluorescence values for the wells containing the highest concentration of the compound were averaged and this value was then subtracted from each of the well values obtained for that 96-well plate. The level of parasite proliferation in the presence of each compound concentration was expressed as a percentage of the proliferation measured in the absence of the compound. The IC50s were determined in SigmaPlot Windows Version 11.0 by a least-squares fit of the equation y = a/[1 + ([compound]/IC50)^c] to the data, where y is the percent parasite proliferation, a is the maximum change in the percent parasite proliferation, and c is a fitted constant. In all cases, five independent experiments were performed (on different days), and within each experiment measurements were averaged from three replicates.

[7] = test system: 3D7 strain; experiment: P. falciparum proliferation assay; type: cell-based, Plasmodium falciparum
Procedure: as §3

[8] = test system: 7G8 strain; experiment: P. falciparum proliferation assay; type: cell-based, Plasmodium falciparum
Procedure: as §3

[9] = test system: C4^Dd2 parasites; experiment: P. falciparum proliferation assay; type: cell-based, Plasmodium falciparum
Procedure: as §3

[10] = test system: C6^7G8 parasites; experiment: P. falciparum proliferation assay; type: cell-based, Plasmodium falciparum
Procedure: as §3

[11] = test system: Dd2 strain; experiment: P. falciparum proliferation assay; type: cell-based, Plasmodium falciparum
Procedure: as §3

[12] = 72 h, read-out: IC50 (μM), parasite proliferation, + 1 μM VP, SEM
[13] = C2GC03, 72 h, 37 °C, SYBR Safe, mean ± SEM, n = 5, read-out: IC50 (μM), parasite proliferation, Control
[14] = Plasmodium falciparum, 3D7, 72 h, 37 °C, SYBR Safe, mean ± SEM, n = 5, read-out: IC50 (μM), parasite proliferation, Control
[15] = read-out: IC50 (μM), parasite proliferation, + 1 μM VP, SEM
[16] = Plasmodium falciparum, 72 h, read-out: IC50 (μM), parasite proliferation, Control, SEM
[17] = read-out: IC50 (μM), parasite proliferation, + 1 μM VP, 7G8, + 1 μM verapamil, 72 h, mean ± SEM, n = 5
[18] = Plasmodium falciparum, DD2, C4Dd2, 72 h, 37 °C, SYBR Safe, mean ± SEM, n = 5, read-out: IC50 (μM), parasite proliferation, Control
[19] = Plasmodium falciparum, C67G8, 72 h, 37 °C, SYBR Safe, mean ± SEM, n = 5, read-out: IC50 (μM), parasite proliferation, Control
[20] = read-out: IC50 (μM), parasite proliferation, + 1 μM VP, C67G8, + 1 μM verapamil, 72 h, mean ± SEM, n = 5

T4 sequence (Q8IDM6 whole entry): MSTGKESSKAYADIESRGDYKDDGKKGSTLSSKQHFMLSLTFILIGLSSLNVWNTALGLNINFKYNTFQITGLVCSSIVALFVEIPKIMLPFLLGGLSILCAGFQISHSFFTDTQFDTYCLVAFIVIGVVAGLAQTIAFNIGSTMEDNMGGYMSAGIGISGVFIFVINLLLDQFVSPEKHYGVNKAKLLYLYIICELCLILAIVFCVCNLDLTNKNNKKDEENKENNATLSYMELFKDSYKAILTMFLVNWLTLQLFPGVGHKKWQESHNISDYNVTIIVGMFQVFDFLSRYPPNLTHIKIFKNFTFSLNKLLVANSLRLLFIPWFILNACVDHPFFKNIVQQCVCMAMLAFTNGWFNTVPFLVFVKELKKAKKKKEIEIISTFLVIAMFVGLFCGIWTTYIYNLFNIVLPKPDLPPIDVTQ

CC(C)c1nc(CN(C)C(=O)N[C@H](C(=O)N[C@@H](Cc2ccccc2)C[C@H](O)[C@H](Cc2ccccc2)NC(=O)OCc2cncs2)C(C)C)cs1 [ritonavir]
Effect on rate of DV alkalinisation / H+ leak (in words) [1]: without effect | Effect on rate of DV alkalinisation / H+ leak (in words) [2]: without effect | Effect on rate of DV alkalinisation / H+ leak (in words) [3]: without effect

Cc1cccc(C)c1OCC(=O)N[C@@H](Cc1ccccc1)[C@@H](O)C[C@H](Cc1ccccc1)NC(=O)[C@H](C(C)C)N1CCCNC1=O [lopinavir]
Effect on rate of DV alkalinisation / H+ leak (in words) [1]: without effect | Effect on rate of DV alkalinisation / H+ leak (in words) [2]: without effect | Effect on rate of DV alkalinisation / H+ leak (in words) [3]: without effect

O=c1[nH]cnc2nc[nH]c12 [[3H]hypoxanthine]
[3H]hypoxanthine transport into the oocyte, non-expressing oocytes [4]: 12.63 % PfNT1 and 13.63 % PfNT1 and 15.33 % PfNT1 and 10.43 % PfNT1 and 11.43 % PfNT1 | [3H]hypoxanthine transport into the oocyte, PfNT1 [5]: 100 % PfNT1

CC(C)C[C@H](NC(=O)[C@H]1O[C@@H]1C(=O)O)C(=O)NCCCCN=C(N)N [E-64]
Effect on rate of DV alkalinisation / H+ leak (in words) [1]: caused a H^+ leak | Effect on rate of DV alkalinisation / H+ leak (in words) [3]: neither peptide exerted an effect

CC(=O)N[C@@H](CC(C)C)C(=O)N[C@@H](CC(C)C)C(=O)N[C@H](C=O)CCCNC(=N)N [Leupeptin, leupeptin]
Effect on rate of DV alkalinisation / H+ leak (in words) [1]: caused a H^+ leak | Effect on rate of DV alkalinisation / H+ leak (in words) [2]: induced a H^+ leak | Effect on rate of DV alkalinisation / H+ leak (in words) [3]: neither peptide exerted an effect

Cc1c(O)cccc1C(=O)N[C@@H](CSc1ccccc1)[C@H](O)CN1C[C@H]2CCCC[C@H]2C[C@H]1C(=O)NC(C)(C)C [Nelfinavir, nelfinavir]
IC50 [6, 12]: 4.6 ± 0.3 µM | IC50 [6, 13]: 13.1 ± 0.8 µM | IC50 [7, 14]: 15.3 ± 1.2 µM | IC50 [7, 15]: 5.6 ± 0.8 µM | IC50 [8, 16]: 7.3 ± 0.6 µM | IC50 [8, 17]: 3.1 ± 0.3 µM | IC50 [9, 18]: 4.1 ± 0.1 µM | IC50 ([9]; read-out: IC50 (μM), parasite proliferation, + 1 μM VP, C4Dd2, + 1 μM verapamil, 72 h, mean ± SEM, n = 5): 0.7 ± 0.03 µM | IC50 [10, 19]: 6.2 ± 0.3 µM | IC50 [10, 20]: 1.4 ± 0.1 µM | IC50 ([11]; Plasmodium falciparum, DD2, 72 h, read-out: IC50 (μM), parasite proliferation, Control, SEM): 5.7 ± 0.5 µM | IC50 ([11]; read-out: IC50 (μM), parasite proliferation, + 1 μM VP, Dd2, + 1 μM verapamil, 72 h, mean ± SEM, n = 5): 0.5 ± 0.02 µM

CC(C)(C)NC(=O)[C@@H]1CN(Cc2cccnc2)CCN1C[C@@H](O)C[C@@H](Cc1ccccc1)C(=O)N[C@H]1c2ccccc2C[C@H]1O [Indinavir, indinavir]
IC50 [6, 12]: 1.2 ± 0.8 µM | IC50 [6, 13]: 4.2 ± 0.2 µM | IC50 [7, 14]: 4.1 ± 0.1 µM | IC50 [7, 15]: 2.1 ± 0.8 µM | IC50 [8, 16]: 2.5 ± 0.2 µM | IC50 [8, 17]: 0.5 ± 0.06 µM | IC50 [9, 18]: 2.2 ± 0.1 µM | IC50 [10, 19]: 1.1 ± 0.05 µM | IC50 [10, 20]: 0.4 ± 0.02 µM
